Data taken from patent US7838234B2, “Methods for determining cancer resistance to histone deacetylase inhibitors” (Pharmacyclics, Inc., priority 2007, dated 2010).

Key:
AML primary tumor cells = assay: Soft agar tritiated thymidine assay of primary human tumor samples, EDR/IDR/LDR classification: AML; assay type: cell-based
Experimental: (§1) Subsequently, primary human tumor samples were obtained and viable tumor cells were plated in soft agar and treated with the HDAC inhibitor PCI-24781. Tritiated thymidine was added after 3 days, and 2 days later the radioactivity incorporated into the DNA was quantified. The tumors were then classified as either resistant (EDR: Extreme Drug Resistance), sensitive (LDR) or intermediate (IDR) based on deviation from the median profile (Oncotech, Inc. Tustin, Calif.). As predicted based on the HDACi responsive biomarker gene profiles hematopoietic tumors had the lowest proportion of resistant (EDR) tumors, and colon the most (38%). Among the solid tumors, ovarian had the lowest proportion of resistant tumors, consistent with the high HDACi-biomarker responsiveness of this tissue.

[1] = test system: primary colorectal tumors (colon carcinoma biopsies); assay: Soft agar chemosensitivity assay (tritiated thymidine incorporation) of primary colorectal tumors ex vivo; assay type: cell-based, human
Description: The method used soft agar chemosensitivity assays in which primary human tumors were exposed in culture to PCI-24781. Either a trititated thymidine or alamar blue assay was then used to estimate the percentage of resistance to PCI-24781. For example in the trititated thymidine assay, sensitive tumor cells affected by the drug divided less and therefore incorporated less thymidine, whereas resistant tumor cells continued to grow and divide and therefore incorporated more thymidine into their DNA.
Primary colorectal cancer (CRC) samples were obtained from patient biopsies (Table 2). Viable tumor cells were plated and cultured in soft agar as described in Kern et al. (1990), J. Natl. Cancer Inst., 82:582-588, and were treated with a range of PCI-24781 concentrations (0.01-2 μM). Tritiated thymidine was added to the culture after 3 days of exposure to the drug, and the amount of radioactivity incorporated into the cells after a further 2 days was quantified. The percentage of cell growth inhibition (% GI) was calculated by comparing the treated cells to the control cells, and from these growth profiles the tumors were classified as either sensitive or resistant based on deviation from the median profile.
Subsequently, primary human tumor samples were obtained and viable tumor cells were plated in soft agar and treated with the HDAC inhibitor PCI-24781. Tritiated thymidine was added after 3 days, and 2 days later the radioactivity incorporated into the DNA was quantified. The tumors were then classified as either resistant (EDR: Extreme Drug Resistance), sensitive (LDR) or intermediate (IDR) based on deviation from the median profile (Oncotech, Inc. Tustin, Calif.).

[2] = test system: HDACi-responsive biomarker genes; assay: Taqman mRNA levels of HDACi-responsive biomarker genes in mouse tissues after dosing; assay type: in vivo; conditions: mice, 50 mg/kg, 3 and 8 hours after administration, 13 tissues
Experimental: RNA expression profiles were determined using on a GE-Codelink Mouse Unisetl 10K oligonucleotide arrays in duplicate. Each treated sample was normalized to the corresponding vehicle control. In order to validate the expression profile of HDADi-responsive genes identified by the gene expression array assays, Taqman gene expression assays were performed using Applied Biosystems Inc. assays. One-step RT-PCR was carried out in triplicate on 25 ng of total RNA from each sample on a ABI PRISM 7700 instrument. The mRNA levels for each gene were normalized to the amount of RNA in the well as measured in parallel using Ribogreen (Molecular Probes). The treated samples were then normalized to the vehicle control at that time point. We then determined the in vivo expression levels for five of the RDACi-responsive biomarker genes in various tissues following 3 hours or 8 hours following administration of PCI-24781 (50 mg/kg). A Taqman assay was performed to determine mRNA expression levels in brain, colon, kidney, liver, stomach, ovary, uterus, mammary, muscle, heart, lung, spleen, and pancreas. The issue distribution pattern was very reproducible across the biomarker set.

[3] = test system: acetylated tubulin in PBMC; assay: Tubulin acetylation in peripheral blood mononuclear cells of treated mice (immunoblotting); assay type: in vivo, mouse; conditions: female BALB/c mice, 50 mg/kg IV, 0.25-8 hours after dosing
Experimental: In brief, female BALB/c mice were injected IV with 50 mg/kg PCI-24781 or vehicle. Blood and various tissues were collected at 0.25, 0.5, 1, 2, 3 & 8 hours after dosing. For acetylated histone and tubulin detection, organs/tissues were pooled for each vehicle and drug-treated organ group. RNA and protein were extracted from the samples with the PARIS Protein and RNA Isolation System (Ambion). Levels of acetylated and total α-tubulin & histones were evaluated by immunoblotting.

[4] = test system: HDACi resistance biomarker genes in colorectal tumor cells; assay: Microarray gene expression profiling of colorectal tumor cells treated with PCI-24781 or untreated; assay type: cell-based, human; conditions: PCI-24781 2 μM vs untreated
Experimental: After determining tumor sensitivity to PCI-24781, gene expression profiles were determined for resistant and sensitive tumors that were treated with PCI-24781 (2 μM) or untreated. Total RNA was isolated using Qiagen procedures (Qiagen, Inc., Valencia, Calif.) and fluorescent probes were prepared and hybridized to Codelink Human Whole Genome oligonucleotide microarrays containing ˜55,000 unique probes (GE Healthcare Bio-Sciences Corp., Piscataway, N.J.) according to the manufacturer's instructions. The microarrays were scanned in a GenePix 4000B scanner (Molecular Devices Corporation, Sunnyvale Calif.). The images were processed with Codelink software and the exported data was analyzed as follows.
The median-normalized microarray data were imported into Genespring software (Agilent), and principal component analysis (PCA) and hierarchical clustering analysis were performed. We looked for consistent results from multiple analysis methods to provide additional confidence in our results. For multiple hypothesis correction, we used the q-values approach for false discovery rates (FDR) as described in Storey et al. (2003), Proc. Nat. Acad. Sci. USA, 100:9440-9445. As a second analytical approach we adopted the Bayesian ANOVA approach described in Ishwaran et al. (2003), J. Amer. Stat. Assoc., 98:438-455. […]

[5] = test system: Ovarian primary tumor cells; assay: Soft agar tritiated thymidine assay of primary human tumor samples, EDR/IDR/LDR classification: ovarian; assay type: cell-based
Experimental: as §1

[6] = test system: Multiple Myeloma primary tumor cells; assay: Soft agar tritiated thymidine assay of primary human tumor samples, EDR/IDR/LDR classification: multiple myeloma; assay type: cell-based
Experimental: as §1

[7] = test system: primary colon tumor cells from newly diagnosed, naive patients; assay: Ex vivo growth inhibition of primary colon tumor cells from newly diagnosed, naive patients; assay type: cell-based, human; conditions: ex vivo cultured cells from twelve patients, FIG. 11A
[8] = test system: Glioblastoma primary tumor cells; assay: Soft agar tritiated thymidine assay of primary human tumor samples, EDR/IDR/LDR classification: glioblastoma; assay type: cell-based
Experimental: as §1

[9] = test system: advanced metastatic colon tumor cells; assay: Ex vivo growth inhibition of advanced metastatic colon tumor cells; assay type: cell-based, human; conditions: in a number of cases, FIG. 11B

In the case of `CN(C)Cc1c(C(=O)NCCOc2ccc(C(=O)NO)cc2)oc2ccccc12` [PCI-24781], the “% Resistance” value (AML primary tumor cells) is reported as 10%, the “Intermediate IDR (number of tumors)” value (AML primary tumor cells; of 10 tumors) is reported as 4 and the “Resistant EDR (number of tumors)” value (AML primary tumor cells; of 10 tumors) is reported as 1. The “Sensitive LDR (number of tumors)” value (AML primary tumor cells; of 10 tumors) was 5, the “% Resistance” value [1] was 38% and the “Intermediate IDR (number of tumors)” value ([1]; of 24 tumors) was 3. The “Resistant EDR (number of tumors)” value ([1]; of 24 tumors) was 9, the “Sensitive LDR (number of tumors)” value ([1]; of 24 tumors) was 12 and the “tissue with highest induction of mRNA of five HDACi-responsive biomarker genes” value [2] was “Ovary showed the highest level of induction, followed by uterus”. For the same compound, the “tubulin acetylation levels in PBMC” value [3] was “increases”, the “effect of treatment on expression of the identified resistance biomarker genes” value [4] was “not altered” and the “% Resistance” value [5] was 25%. For the same compound, the “Intermediate IDR (number of tumors)” value ([5]; of 12 tumors) was 4, the “Resistant EDR (number of tumors)” value ([5]; of 12 tumors) was 3 and the “Sensitive LDR (number of tumors)” value ([5]; of 12 tumors) was 5. The “% Resistance” value [6] was 33%, the “Intermediate IDR (number of tumors)” value ([6]; of 6 tumors) was 0 and the “Resistant EDR (number of tumors)” value ([6]; of 6 tumors) was 2. The “Sensitive LDR (number of tumors)” value ([6]; of 6 tumors) was 4, the “sensitivity to growth inhibition” value [7] was “all sensitive” and the “% Resistance” value [8] was 29%. The “Intermediate IDR (number of tumors)” value ([8]; of 7 tumors) was 1, the “Resistant EDR (number of tumors)” value ([8]; of 7 tumors) was 2 and the “Sensitive LDR (number of tumors)” value ([8]; of 7 tumors) was 4. For the same compound, the “sensitivity to growth inhibition” value [9] was “resistant”.
